Source: BindingDB's records for doi:10.1021/acschembio.5b00452 (Oregon Health & Science University, 2015)

Experiments:
[1] = target: T1, N-glycosylase/DNA lyase (Homo sapiens, UniProt O15527); experiment: Fluorescence-based Assay; settings: pH 7.5; 37 °C
Protocol: The fluorescence-based assay outlined in Figure 2 a was performed in black, low volume 384-well plates with a fi nal volume of 10 µL per well. Nine uL of assay buffer (20 mM Tris-HCl, 100 mM KCl, 0.1% BSA, 0.01% Tween-20, pH 7.5) was added toeach well, followed by the addition of 1 uL of DMSO (control) or 50 µM compound in DMSO. […] Control wells containing just substrate or just substrate + enzyme were used to calculate Z values for each plate.

[2] = target: T1, N-glycosylase/DNA lyase; experiment: Gel-based Cleavage Assay
Protocol: Substrate (5 µL, 50 nM) was added to bring the final volume to 10 µL. The reaction was incubated 30 min at 37 °C, quenched by the addition of 10 µL of formamide, and put on ice. […] Band intensities were quantified using the Image Studio Lite Software (LI-COR).

T1 sequence (O15527 whole entry): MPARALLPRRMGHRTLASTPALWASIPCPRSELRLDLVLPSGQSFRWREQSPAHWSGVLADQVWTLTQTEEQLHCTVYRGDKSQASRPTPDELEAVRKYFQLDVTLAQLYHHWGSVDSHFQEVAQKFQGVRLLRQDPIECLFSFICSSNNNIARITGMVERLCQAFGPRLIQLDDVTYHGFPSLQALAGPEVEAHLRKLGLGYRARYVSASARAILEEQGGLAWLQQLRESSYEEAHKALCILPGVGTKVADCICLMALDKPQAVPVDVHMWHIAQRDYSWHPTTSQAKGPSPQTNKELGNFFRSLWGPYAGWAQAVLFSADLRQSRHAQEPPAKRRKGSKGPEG

Row | Compound | IC50 [1] | IC50 [2]
1 | COc1cc(C)c(S(=O)(=O)n2cc(C)nc2-c2ccccc2)cc1C [1‐(4‐Methoxy‐2,5‐dimethylbenzenesulfonyl)‐4‐methyl‐2‐phenylimidazole (0105)] | 4150 nM | –
2 | CCCN1CCC(=NNC(=O)c2ccc(Cl)cc2Cl)CC1 [2,4‐Dichloro‐N'‐(1‐propylpiperidin‐4‐ ylidene)benzohydrazide (0181)] | 4560 nM | –
3 | CC(Oc1cccc(Cl)c1)C(=O)NN (stereo not given) [2‐(3‐Chlorophenoxy)propanehydrazide (01)] | 3380 nM | –
4 | Cc1cc(OCC(=O)NN)cc(C)c1Cl [2‐(4‐Chloro‐3,5‐dimethylphenoxy)acetohydrazide (0159)] | 1530 nM | –
5 | NNC(=O)COc1cccc2ccccc12 [2‐(Naphthalen‐1‐yloxy)acetohydrazide (040)] | 1560 nM | –
6 | NNC(=O)c1sc2cccc(Cl)c2c1Cl [3,4‐Dichloro‐1‐benzothiophene‐2‐carbohydrazide (08)] | 350 nM | 220 nM
7 | CCCC/C(C)=N\NC(=O)c1cccc(Br)c1 [3‐Bromo‐N'‐[(2Z)‐hexan‐2‐ylidene]benzohydrazide (0156)] | 2130 nM | –
8 | C=CCC/C(C)=N\NC(=O)c1cccc(Br)c1 [3‐Bromo‐N'‐[(2Z)‐hex‐5‐en‐2‐ylidene]benzohydrazide (0155)] | 3780 nM | –
9 | NNC(=O)c1sc2ccccc2c1Cl [3‐Chloro‐1‐benzothiophene‐2‐carbohydrazide (O8-Cl)] | 300 nM | –
10 | NC(=O)c1ccc(Br)cc1 [4-Bromo-benzamide] | > 50000 nM | –
11 | NNC(=O)c1ccncc1 [4-pyridinecarbohydrazide(Isoniazid)] | > 50000 nM | > 50000 nM
12 | NNC(=O)c1ccc(Br)cc1 [Benzoylhydrazine, P‐bromo (0151-Hy)] | 390 nM | –
13 | Cc1cc(C(=O)NNCc2ccccc2)no1 [ISOCARBOXAZID] | > 50000 nM | –
14 | O=C(NN=C1CCCCC1)c1cc2ccccc2cc1O [N'‐Cyclohexylidene‐3‐hydroxynaphthalene‐2‐carbohydrazide (0158)] | 290 nM | 340 nM
15 | C/C(=N\NC(=O)c1cc2ccccc2cc1O)c1ccc2c(c1)OCO2 [N'‐[(1E)‐1‐(2H‐1,3‐benzodioxol‐5‐yl)ethylidene]‐3‐hydroxynaphthalene‐2‐carbohydrazide (0179)] | 7170 nM | –
16 | NNc1nncc2ccccc12 [NSC_3637] | > 50000 nM | –
17 | O=C(CCNNC(=O)c1ccncc1)NCc1ccccc1 [Nialamide] | > 50000 nM | –
